Measured values as given in patent publication US4986982A, “Cosmetic composition” (priority 1988, dated 1991).

Assays:
physchem = details: 100 mm phosphate buffer
Method: (§1) (i) The chosen ester of pyroglutamic acid was dissolved in aqueous buffer of a selected pH value, to provide a 0.1% w/v solution of the ester;
(§2) (ii) Intact (unhydrolysed) ester was analysed by high performance liquid chromatography at regular time intervals.
(§3) (iii) The log of the amount of the ester remaining intact versus time was plotted to give a straight line response.
(§4) (iv) From this plot, the time required for half of the ester of pyroglutamic acid to be hydrolysed (half of the ester remaining intact), can be determined if necessary by extrapolation.
(§5) *Assay performed in 100 mM phosphate buffer at 30° C.

[1] = Stability of esters of pyroglutamic acid in aqueous buffer (half-life of hydrolysis, intact ester by HPLC)
Method: as §1, §2, §3, §4, §5

[2] = Delivery of pyroglutamic acid to the stratum corneum after topical application of tritiated esters to the arms of volunteers (radio-tracer technique); assay type: in vivo, human; details: [3H] pyroglutamic acid applied topically instead of ester
Excerpt: Accordingly, [^3 H] esters of pyroglutamic acid were each dissolved at 1% w/v in anhydrous ethanol or in an oil-in-water emulsion base. […] The [^3 H] pyroglutamic acid was separated from unchanged ester by chromotography on AG1X8 resin and the amount delivered to the skin expressed as nmoles per mg of stratum corneum protein.

| Compound | half-life (physchem; pH 4) | half-life (physchem; pH 7) | other results |
| --- | --- | --- | --- |
| CCOC(=O)C(C)OC(=O)C1CCC(=O)N1 (stereo not shown) [Ethyl-2-[pyroglutamoyloxy]-n-propionate, ethyl-2-[pyroglutamoyloxy]-n-propionate] | 70.8 days | 0.375 days |  |
| CCOC(=O)[C@@H]1CCC(=O)N1 [Pyroglutamic acid ethyl ester, pyroglutamic acid ethyl ester] |  |  | half-life ([1]; 100 mm phosphate buffer, pH 4): 11000 h; half-life ([1]; 100 mm phosphate buffer, pH 7): 58 h; half-life ([1]; aqueous buffer, pH 6.5): 288 h; half-life ([1]; aqueous buffer, pH 6.8): 168 h; half-life ([1]; aqueous buffer, pH 7): 57.6 h; half-life ([1]; aqueous buffer, pH 7.4): 48 h; half-life ([1]; aqueous buffer, pH 7.8): 24 h |
| O=C1CCC(C(=O)O)N1 (stereo not shown) [[^3 H] pyroglutamic acid, 2-pyrrolidone-5-carboxylic acid] |  |  | amount of tritiated free acid recovered from the stratum corneum [2]: negligible amount |

Further lines, with some results ahead:

| half-life (physchem; pH 4) | half-life (physchem; pH 7) | Compound | other results |
| --- | --- | --- | --- |
| 625 days | 3.33 days | CCCCOC(=O)[C@@H]1CCC(=O)N1 [Pyroglutamic acid n-butyl ester, pyroglutamic acid n-butyl ester] |  |
| 750 days | 4 days | CCCCCCOC(=O)[C@@H]1CCC(=O)N1 [Pyroglutamic acid n-hexyl ester, pyroglutamic acid n-hexyl ester] |  |
| 750 days | 4 days | CCCCCCCCOC(=O)[C@@H]1CCC(=O)N1 [Pyroglutamic acid n-octyl ester, pyroglutamic acid n-octyl ester] |  |
